Consider 13 compounds from ChEMBL document CHEMBL4813920, “Metronidazole-conjugates: A comprehensive review of recent developments towards synthesis and medicinal perspective” (Eur J Med Chem, 2021).

Values after ≈ are worked out from the molar mass of the structure shown. Bounds are passed on as bounds.

For data set [1], the system named is Helicobacter pylori. Kind of data set: Antimicrobial activity against Helicobacter pylori ATCC 43504 incubated for 3 days by agar dilution method. In kind it is functional. The conditions noted are these: NCTC 11637 = CCUG 17874 = ATCC 43504, 72 h, time 3 day.
Data set [2] deals with Helicobacter pylori. Kind of data set: Antimicrobial activity against Helicobacter pylori SS1 incubated for 3 days by agar dilution method. In kind it is functional. The conditions noted are these: SS1, 72 h, time 3 day.
The test system of data set [3] is Helicobacter pylori. Kind of data set: Antimicrobial activity against Helicobacter pylori clinical isolate1 for 3 days by agar dilution method. The settings on record: clinical isolate1, 72 h, time 3 day. In kind it is functional. For orientation: In agar dilution the substance is mixed into plates at graded concentrations.
In data set [4] the test system is Helicobacter pylori. As to the kind of experiment: Antimicrobial activity against Helicobacter pylori clinical isolate3 for 3 days by agar dilution method. In kind it is functional. The conditions noted are these: clinical isolate3, 72 h, time 3 day.
In data set [5] the test system is Helicobacter pylori. Kind of data set: Antimicrobial activity against Helicobacter pylori SS1 clinical isolate2 for 3 days by agar dilution method. In kind it is functional. The settings on record: SS1 clinical isolate2, 72 h, time 3 day.
Data set [6] has as its system Helicobacter pylori. Kind of data set: Antimicrobial activity against Helicobacter pylori clinical isolate4 for 3 days by agar dilution method. In kind it is functional. The settings on record: clinical isolate4, 72 h, time 3 day.
The subject of data set [7] is B16-F10. As to the kind of experiment: Antiproliferative activity against mouse B16-F10 cells incubated for 24 to 48 hrs by MTT assay. In kind it is functional, cell-based. (In general: Formazan colour is commonly taken as a measure of viable cells.)
In data set [8] the test system is MCF7. As to the kind of experiment: cells. The settings on record: Homo sapiens, MCF7, 24 h.
In data set [9] the test system is HEK293. Kind of data set: Cytotoxicity against HEK293 cells after 24 hrs by MTT assay. In kind it is cell-based. The settings on record: Homo sapiens, HEK293, 24 h.
Data set [10] deals with MDA-MB-231. As to the kind of experiment: Antiproliferative activity against human MDA-MB-231 cells after 24 hrs by MTT assay. The conditions noted are these: MDA-MB-231, 24 h. In kind it is functional, cell-based.
In data set [11] the test system is Pseudomonas aeruginosa. Kind of data set: Antibacterial activity against Pseudomonas aeruginosa ATCC 27853 by microbroth dilution method. In kind it is functional. On the technique in general: Dilution methods test growth across graded concentrations, often in twofold steps.
Data set [12] relates to Escherichia coli. As to the kind of experiment: Antibacterial activity against Escherichia coli by microbroth dilution method. In kind it is functional.
In data set [13] the test system is Acinetobacter baumannii. As to the kind of experiment: Antibacterial activity against Acinetobacter baumannii by microbroth dilution method. In kind it is functional.
For data set [14], the system named is Enterococcus faecalis. As to the kind of experiment: Antibacterial activity against Enterococcus faecalis by microbroth dilution method. In kind it is functional.
The subject of data set [15] is Giardia intestinalis. As to the kind of experiment: Antigiardial activity against Giardia intestinalis WB ATCC 30957 incubated for 72 hrs by trypan blue staining based assay. The settings on record: Giardia duodenalis, WB ATCC 30957, 72 h. In kind it is functional, organism-based.
In data set [16] the test system is Entamoeba histolytica. As to the kind of experiment: Antiamoebic activity against Entamoeba histolytica HK9 ATCC 30015 incubated for 72 hrs by trypan blue staining based assay. The conditions noted are these: ATCC 30015, 72 h. In kind it is functional, organism-based.
Data set [17] deals with Pseudomonas aeruginosa. Kind of data set: Antibacterial activity against Pseudomonas aeruginosa ATCC 13525 by MH media dilution method. In kind it is functional.
The test system of data set [18] is Escherichia coli. Kind of data set: Antibacterial activity against Escherichia coli ATCC 35218 by MH media dilution method. In kind it is functional.
The subject of data set [19] is Bacillus spizizenii. Kind of data set: Antibacterial activity against Bacillus subtilis ATCC 6633 by MH media dilution method. In kind it is functional.
Data set [20] has as its system Staphylococcus aureus. Kind of data set: Antibacterial activity against Staphylococcus aureus ATCC 6538 by MH media dilution method. In kind it is functional.
A short description of data set [21]: Inhibition of Staphylococcus aureus TyrRS using L-tyrosine and tRNA as substrate preincubated for 10 mins followed by substrate addition by liquid scintillation counting method.
Data set [22] can be described thus: Cytotoxicity against African green monkey Vero cells incubated for 48 hrs by sulforhodamine B method. The settings on record: chlorocebus sabaeus. In kind it is cell-based.
Data set [23] deals with Trichomonas vaginalis. Kind of data set: Anti-trichomonas activity against Trichomonas vaginalis GT3 incubated for 48 hrs. The settings on record: GT3, 48 h. In kind it is functional, organism-based.
Data set [24] is described as follows: Selectivity index, ratio of CC50 for African green monkey Vero cells to IC50 for antigiardial activity against Trichomonas vaginalis GT3. The conditions noted are these: read-out: Ratio CC50/IC50. In kind it is toxicity.
The nature of data set [25]: Selectivity index, ratio of CC50 for African green monkey Vero cells to IC50 for antigiardial activity against Giardia intestinalis MSS:0696:1. In kind it is toxicity. The settings on record: read-out: Ratio CC50/IC50.
Data set [26] has as its system Giardia intestinalis. As to the kind of experiment: Antigiardial activity against Giardia intestinalis MSS:0696:1 incubated for 48 hrs. The conditions noted are these: Giardia duodenalis, MSS:0696:1, 48 h. In kind it is functional, organism-based.
In data set [27] the test system is Helicobacter pylori. As to the kind of experiment: Antibacterial activity against Helicobacter pylori ATCC 26695 incubated for 48 hrs by MTT assay. In kind it is functional, organism-based.
In data set [28] the test system is Helicobacter pylori. As to the kind of experiment: Antibacterial activity against Helicobacter pylori P12 incubated for 48 hrs by MTT assay. In kind it is functional, organism-based.
Data set [29] concerns Clostridium perfringens. Kind of data set: Antibacterial activity against Clostridium perfringens ATCC 13124 incubated for 48 hrs under anaerobic condition by MTT assay. In kind it is functional.
Data set [30] is described as follows: Acute oral toxicity in mouse assessed as induction of mortality measured once daily for 14 days. The settings on record: in vivo, time 14 day.
The subject of data set [31] is Pseudomonas aeruginosa. Kind of data set: Antibacterial activity against Pseudomonas aeruginosa ATCC 13525 incubated for 24 hrs by two fold serial dilution method. In kind it is functional.
In data set [32] the test system is Escherichia coli. As to the kind of experiment: Antibacterial activity against Escherichia coli ATCC 35218 incubated for 24 hrs by two fold serial dilution method. In kind it is functional.
Data set [33] in a line: Inhibition of Escherichia coli N-terminal His-tagged FabH expressed in Escherichia coli BL21(DE3) by liquid scintillation counting method.
Data set [34] is described as follows: Acute oral toxicity in mouse assessed as behavioral changes measured once daily for 14 days. The settings on record: in vivo, time 14 day.
For data set [35], the system named is Staphylococcus aureus. As to the kind of experiment: Antibacterial activity against Staphylococcus aureus ATCC 6538 incubated for 24 hrs by two fold serial dilution method. In kind it is functional.
Data set [36] concerns Bacillus spizizenii. Kind of data set: Antibacterial activity against Bacillus subtilis ATCC 6633 incubated for 24 hrs by two fold serial dilution method. In kind it is functional.
Data set [37] is described as follows: Acute oral toxicity in mouse assessed as signs of gross toxicity measured once daily for 14 days. The settings on record: in vivo, time 14 day.
Data set [38] has as its system Candida parapsilosis. Kind of data set: Antimicrobial activity against Candida parapsilosis ATCC 22019. In kind it is functional. The settings on record: Lodderomyces parapsilosis.
For data set [39], the system named is Candida albicans. Kind of data set: Antimicrobial activity against Candida albicans ATCC 90023. In kind it is functional.
The test system of data set [40] is Entamoeba histolytica. As to the kind of experiment: Antiamoebic activity against Entamoeba histolytica HM-1:IMSS trophozoites measured after 72 hrs by microdilution method. In kind it is functional, organism-based.
The target of data set [41] is Telomerase reverse transcriptase (Homo sapiens, UniProt O14746). Kind of data set: Inhibition of telomerase in human SGC-7901 cell extract by TRAP assay.
The test system of data set [42] is U-251. Kind of data set: Antiproliferative activity against human U-251 cells incubated for 24 to 48 hrs by CCK8 assay. In kind it is functional, cell-based.
The subject of data set [43] is HeLa. As to the kind of experiment: Antiproliferative activity against human Hela cells incubated for 24 to 48 hrs by CCK8 assay. In kind it is functional, cell-based.
In data set [44] the test system is HepG2. As to the kind of experiment: Antiproliferative activity against human HepG2 cells incubated for 24 to 48 hrs by CCK8 assay. In kind it is functional, cell-based.
Data set [45] relates to A549. As to the kind of experiment: Antiproliferative activity against human A549 cells incubated for 24 to 48 hrs by CCK8 assay. In kind it is functional, cell-based.

Sequence of Telomerase reverse transcriptase (O14746 whole entry): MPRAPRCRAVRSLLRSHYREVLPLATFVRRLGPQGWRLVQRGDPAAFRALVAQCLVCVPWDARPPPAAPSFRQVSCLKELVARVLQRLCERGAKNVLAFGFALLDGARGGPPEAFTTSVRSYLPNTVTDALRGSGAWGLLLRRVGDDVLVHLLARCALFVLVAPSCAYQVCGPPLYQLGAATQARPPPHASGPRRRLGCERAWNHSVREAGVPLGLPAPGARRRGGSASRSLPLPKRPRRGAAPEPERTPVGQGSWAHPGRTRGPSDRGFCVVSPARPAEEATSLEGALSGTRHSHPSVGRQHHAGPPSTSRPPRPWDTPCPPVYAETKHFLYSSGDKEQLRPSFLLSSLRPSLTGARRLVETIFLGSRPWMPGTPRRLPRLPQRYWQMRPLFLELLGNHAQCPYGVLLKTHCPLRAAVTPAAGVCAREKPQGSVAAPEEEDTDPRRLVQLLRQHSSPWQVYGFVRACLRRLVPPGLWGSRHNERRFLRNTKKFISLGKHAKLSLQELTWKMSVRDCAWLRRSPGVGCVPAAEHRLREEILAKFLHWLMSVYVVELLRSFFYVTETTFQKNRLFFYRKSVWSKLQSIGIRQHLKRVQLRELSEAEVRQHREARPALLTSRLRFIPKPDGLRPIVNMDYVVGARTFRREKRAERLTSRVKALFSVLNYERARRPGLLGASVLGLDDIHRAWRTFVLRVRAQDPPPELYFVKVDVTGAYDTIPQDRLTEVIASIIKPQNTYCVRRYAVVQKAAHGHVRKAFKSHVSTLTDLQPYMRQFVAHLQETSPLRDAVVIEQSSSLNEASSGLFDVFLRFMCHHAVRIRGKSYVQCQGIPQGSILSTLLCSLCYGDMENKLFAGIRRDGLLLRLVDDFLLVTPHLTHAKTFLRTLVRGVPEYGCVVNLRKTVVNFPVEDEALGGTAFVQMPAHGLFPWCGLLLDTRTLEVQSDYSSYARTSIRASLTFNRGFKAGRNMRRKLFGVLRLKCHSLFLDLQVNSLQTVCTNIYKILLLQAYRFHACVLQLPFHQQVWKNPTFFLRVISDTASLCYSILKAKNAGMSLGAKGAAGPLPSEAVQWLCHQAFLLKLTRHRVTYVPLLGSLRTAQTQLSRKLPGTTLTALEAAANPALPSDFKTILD

Turning to `CC1(C)S[C@@H]2[C@H](NC(=O)[C@H](N)c3ccc(O)cc3)C(=O)N2[C@H]1C(=O)O` [AMOXICILLIN], the MIC (as a rule, the lowest concentration that inhibits growth of the organism) in [1] was determined as 0.14 µM (≈ 0.0512 µg/mL); in [2] it was 0.14 µM (≈ 0.0512 µg/mL); in data set [3], 1.07 µM (≈ 0.391 µg/mL); in [4], 1.07 µM (≈ 0.391 µg/mL); in data set [5], 1.07 µM (≈ 0.391 µg/mL); in data set [6], 1.07 µM (≈ 0.391 µg/mL).

Turning to `Cc1ccnc(NS(=O)(=O)c2ccc(/N=C\c3ccc(OCCn4c([N+](=O)[O-])cnc4C)cc3)cc2)n1`, the IC50 in data set [7] is 220 nM.

`Cc1ncc([N+](=O)[O-])n1Cc1cn(CCCCN2C(=O)C(=O)c3cc(Cl)ccc32)nn1`: the figures for the IC50 in data set [8], in data set [9] and in data set [10] were 54200 nM, above 100000 nM and 26100 nM, respectively.

On to `CCn1cc(C(=O)O)c(=O)c2cc(F)c(N3CCNCC3)cc21` [NORFLOXACIN], for which the MIC in [11] came to 1600 µM (≈ 513 µg/mL); in [12], 1600 µM (≈ 513 µg/mL); in [13], 803 µM (≈ 256 µg/mL); in [14], 803 µM (≈ 256 µg/mL).

As for `O=C(O)/C=C/c1ccc([N+](=O)[O-])o1`, the IC50 worked out at 67500 nM in data set [15] and 55700 nM in data set [16].

On to `COc1ccc(-c2cc(C(=O)OCCn3c([N+](=O)[O-])cnc3C)nn2-c2ccc(Cl)cc2)cc1`, for which the MIC stood at 1.96 µg/mL (≈ 4.07 µM) in data set [17], 3.91 µg/mL (≈ 8.11 µM) in data set [18], 7.82 µg/mL (≈ 16.2 µM) in data set [19] and 7.82 µg/mL (≈ 16.2 µM) in [20]. Further, in data set [21], the IC50 came to 1670 nM.

Take `Cc1ncc([N+](=O)[O-])n1CCOC(=O)NC1CCCCC1`: the CC50 (in general, the concentration that lowers cell viability or growth by half) at 48 h in data set [22] was above 100000 nM. In addition, the IC50 in data set [23] came out at 60 nM; in data set [26], 460 nM. Besides, the selectivity ratio in data set [24] was 1670; in data set [25], above 217.

Consider `Cc1ccc(C(C)C)cc1OCCn1c([N+](=O)[O-])cnc1C`, for which the IC50 in data set [27] worked out at 4.921 uM/ml; in data set [28], 0.0011 uM/ml. Further, the minimal inhibitory concentration (MIC) in data set [29] is 2.7 µM (≈ 0.819 µg/mL).

As for `Cc1ncc([N+](=O)[O-])n1CC(C)OC(=O)c1ccc(/C=N/c2ccc(S(=O)(=O)NC(=N)N)cc2)cc1` (configuration not stated), the LD50 at 336 h in data set [30], in data set [34] and in data set [37] was above 5000 mg/kg throughout. Besides, the MIC in [31] stood at 25 µg/mL (≈ 48.7 µM); in [32], 3.13 µg/mL (≈ 6.09 µM); in [35], 12.5 µg/mL (≈ 24.3 µM); in [36], 3.13 µg/mL (≈ 6.09 µM). The IC50 in [33] worked out at 4930 nM.

`OC(Cn1cncn1)(Cn1cncn1)c1ccc(F)cc1F` [FLUCONAZOLE]: the MIC in [38] and in data set [39] was 156 µM (≈ 47.8 µg/mL) throughout.

As for `Cc1ncc([N+](=O)[O-])n1CCOC(=O)Nc1ccc(OCc2cccc(I)c2)cc1`, in data set [40], the IC50 came out at 260 nM.

Regarding `Clc1ccc2c(N3CCNCC3)ccnc2c1`, the IC50 worked out at 88400 nM in data set [15] and 94300 nM in [16].

For `CN(C)c1ccc(/C=C/c2ncc([N+](=O)[O-])n2CCOC(=O)c2nccc3ccccc23)cc1`, the IC50 worked out at 1920 nM in data set [41]; 430 nM in [42]; 120 nM in data set [43]; 140 nM in [44]; 170 nM in [45].
